Results taken from US20020183313A1, “1,4-benzodiazepinones and their uses as CCK antagonists” (Fujisawa Pharmaceutical Co., Ltd., priority 1996, published 2002).

SMILES	melting point
CC1=NC(NC(=O)Nc2cccc(C)c2)C(=O)N(CC(=O)C2CCCCCCC2)c2c(C)cccc21 (racemic) [Example 72, N-[(3RS)-1-Cyclooctylcarbonylmethyl-2,3-dihydro-5,9-dimethyl-2-oxo-1H-1,4-benzodiazepin-3-yl]-N′-(3-methylphenyl)urea]	162.9 to 164.4 °C
O=C(Nc1cccc(-c2nnn[nH]2)c1)NC1N=C(CC2CCCCC2)c2ccccc2N(CC(=O)N2CC3CCC(CC3)C2)C1=O (racemic)	218 to 222 °C (dec.)
CC1=NC(NC(=O)Nc2cc(C)ccn2)C(=O)N(CC(=O)N2CC3CCC(CC3)C2)c2c(C)cccc21 (racemic)	152 to 154.1 °C
CC(=O)CN1C(=O)C(NC(=O)Nc2cccc(-c3nnn[nH]3)c2)N=C(c2ccccc2F)c2cccc(C)c21 (racemic)	173.5 to 189.8 °C
CC1=NC(NC(=O)Nc2cccc(C)c2)C(=O)N(CC(=O)C2CCCC2)c2c(C)cccc21 (racemic) [Example 65, N-[(3RS)-1-Cyclopentylcarbonylmethyl-2,3-dihydro-5,9-dimethyl-2-oxo-1H-1,4-benzodiazepin-3-yl]-N′-(3-methylphenyl)urea]	150.1 to 155.5 °C
Cc1cccc2c1N(CC(=O)N1CC3CCC(CC3)C1)C(=O)C(NC(=O)Nc1cccc(-c3nnn[nH]3)c1)N=C2C1CCCCC1 (racemic)	186.2 to 197.6 °C
Cc1cccc2c1N(CC(=O)N1CC3CCC(CC3)C1)CC(NC(=O)Nc1cccc(Br)c1)N=C2c1ccccc1F (racemic)	> 250 °C
Cc1cccc2c1N(CC(=O)N1CC3CCC(CC3)C1)C(=O)C(NC(=O)Nc1cccc(O)c1)N=C2c1ccccc1F (racemic)	192.8 to 203.9 °C
Cc1cccc(NC(=O)NC2N=C(C=CC(=O)O)c3cccc(C)c3N(CC(=O)N3CCCCCCC3)C2=O)c1 (racemic) [75(1)-2, N-[(3RS)-1-(azacyclooctan-1-yl)carbonylmethyl-2,3-dihydro-5-((EZ)-2-carboxylethenyl)-9-methyl-2-oxo-1H-1,4-benzodiazepin-3-yl]-N′-(3-methylphenyl)urea]	129.3 to 134.1 °C
Cc1cccc(NC(=O)NC2N=C(C(C)C)c3cccc(C)c3N(CC(=O)N3CC4CCC(CC4)C3)C2=O)c1 (racemic)	189.9 to 192.8 °C
CC(C)C1=NC(NC(=O)Nc2ccccc2)C(=O)N(CC(=O)N2CC3CCC(CC3)C2)c2ccccc21 (racemic)	132 to 135 °C
Cc1cccc2c1N(CC(=O)c1ccccc1O)C(=O)C(NC(=O)Nc1cccc(-c3nnnn3C(c3ccccc3)(c3ccccc3)c3ccccc3)c1)N=C2c1ccccc1F (racemic)	132.1 to 146 °C
Cc1cccc(NC(=O)NC2N=C(C3CCCCC3)c3cccc(C)c3N(C)C2=O)c1 (racemic)	196.4 to 197.5 °C
CC1=NC(NC(=O)Nc2cccc(C)c2)C(=O)N(CC(=O)N2CCC(N3CCCCC3)CC2)c2c(C)cccc21 (racemic) [48-3(1), N-[(3RS)-1-[4-(Piperidino)piperidin-1-yl]carbonylmethyl-5,9-dimethyl-2,3-dihydro-2-oxo-1H-1,4-benzodiazepin-3-yl]-N′-(3-methylphenyl)urea]	214.5 to 217.3 °C
CCC1=NC(NC(=O)Nc2cccc(C)c2)C(=O)N(CC(=O)N2CCCCCCC2)c2c(C)cccc21 (racemic) [Example 66, N-[(3RS)-1-(Azacyclooctan-1-yl)carbonylmethyl-2,3-dihydro-5-ethyl-9-methyl-2-oxo-1H-1,4-benzodiazepin-3-yl]-N′-(3-methylphenyl)urea]	189 to 189.5 °C
Cc1cccc(NC(=O)NC2N=C(CC(C)C)c3cccc(C)c3N(CC(=O)C3CCCCC3)C2=O)c1 (racemic) [Example 73, N-[(3RS)-1-Cyclohexylcarbonylmethyl-2,3-dihydro-5-isobutyl-9-methyl-2-oxo-1H-1,4-benzodiazepin-3-yl]-N′-(3-methylphenyl)urea]	152.3 to 154.8 °C
